{
  "source": "patent US8881823B2",
  "about": "“Environmentally friendly low temperature breaker systems and related methods” (Halliburton Energy Services, Inc., priority 2011, dated 2014)",
  "key": {"[1]": {"experiment": "Calcite dissolving capacity of breaker systems", "format": "physicochemical", "settings": "2.5 g BARACARB 5 in 50 mL test fluid, one hour", "description": "The calcite dissolving capacity of each breaker system was determined in the following manner. A known amount of a technical grade calcium carbonate (commercially available from Halliburton under the tradename “BARACARB 5”) was dried in an oven for 2 hours. […] The solution was subsequently filtered with a 1 micron fiber glass filter paper."}, "[2]": {"system": "Rainbow trout (Oncorhynchus mykiss)", "experiment": "Active toxicity test of GLDA on Rainbow trout (OECD 203)", "format": "in vivo", "settings": "OECD 203, 96-h", "description": "(§1) GLDA was also tested for its eco-toxicological effect on various environmental subjects. In particular, the active toxicity of GLDA was measured on various organisms following OECD 201, 202 and 203 protocols."}, "[3]": {"experiment": "Active toxicity test of GLDA on Rainbow trout (OECD 203)", "format": "in vivo, Oncorhynchus mykiss", "settings": "rainbow trout (Oncorhynchus mykiss), in vivo, OECD 203, 96-h", "description": "as §1"}, "Alga": {"system": "Alga", "settings": "Alga, in vivo, 72 h", "description": "as §1"}, "[4]": {"design": "species or system Alga", "settings": "alga, in vivo", "description": "as §1"}, "[5]": {"experiment": "Chemical oxygen demand (COD) test", "format": "physicochemical", "from_the_text": "Table 2 compares the biodegradability of GLDA and EDTA and summarizes chemical oxygen demand (COD) tests which indirectly measures the amount of organic compounds in water."}, "[6]": {"experiment": "Dissolution and miscibility tests in sodium bromide brines", "format": "physicochemical", "settings": "for % Complexed or Dissolved / Final Weight of BARACARB 5: 2.5 g BARACARB 5, 150° F., 16 hours", "description": "Dissolution and miscibility tests were also performed on 20% GLDA in sodium bromide brines. 20% GLDA was mixed in various concentration of NaBr in order to evaluate the effect of brine concentration on the dissolving capacity of GLDA. Without being limited by theory, it is believed that reducing the amount of available free water in the brine reduced the dissociation rate of the acid functionalities on the breaker, which in turn reduced the amount of complexed calcium ions. These tests were performed in 20% v/v breaker systems in 10.2 lb/gal KCl/NaBr brine or 12.5 lb/gal NaBr brine. In each case, 2.5 g of BARACARB 5 calcium carbonate was added to the breaker systems at 150° F. for 16 hours. For comparison, a mineral acid breaker system was also tested."}, "[7]": {"settings": "20% v/v breaker in 10.2 lb/gal KCl/NaBr"}, "[8]": {"settings": "20% v/v breaker in 12.5 lb/gal NaBr"}},
  "data": [
    {"smiles": "O=C(O)CC[C@@H](C(=O)O)N(CC(=O)O)CC(=O)O", "note": "[GLDA, L-glutamic acid N,N-diacetic acid]", "values": [
      {"measurement": "% Carbonate Complexed or Dissolved", "setting": "[1]", "result": 19.6, "unit": "%"},
      {"measurement": "Final Weight of BARACARB 5, g", "setting": "[1]", "result": 2.01, "unit": "g"},
      {"measurement": "96-h NOEC", "setting": "[2]", "result": "NOEC ≧ 100 mg/l"},
      {"measurement": "LC50 at 96 h", "setting": "[3]", "result": "> 100", "unit": "µg/mL"},
      {"measurement": "72-h NOEC", "setting": "Alga", "result": "NOEC ≧ 100 mg/l"},
      {"measurement": "EC50 at 72 h", "setting": "[4]", "result": "> 100", "unit": "µg/mL"},
      {"measurement": "COD", "setting": "[5]", "result": "345 to 385", "unit": "mg/g"},
      {"measurement": "% Complexed or Dissolved", "setting": "[6]; [7]", "result": 49, "unit": "%"},
      {"measurement": "Final Weight of BARACARB 5", "setting": "[6]; [7]", "result": 1.27, "unit": "g"},
      {"measurement": "% Complexed or Dissolved", "setting": "[6]; [8]", "result": 29, "unit": "%"},
      {"measurement": "Final Weight of BARACARB 5", "setting": "[6]; [8]", "result": 1.78, "unit": "g"},
      {"measurement": "carbonate dissolved (FIG. 2)", "setting": "[6]; higher brine concentration", "result": "less than 45%"},
      {"measurement": "carbonate dissolved (FIG. 2)", "setting": "[6]; lower brine concentration", "result": "more than 80%"}
    ]}
  ]
}
